Reference: patent publication US11608342B2, “PDE9 inhibitors with imidazo triazinone backbone and imidazo pyrazinone backbone for treatment of peripheral diseases” (H. LUNDBECK A/S, priority 2015, dated 2023)

Assays:
PDE9 = PDE9 (Homo sapiens (Human), UniProt O76083); assay: PDE9 inhibition assay; type: biochemical; conditions: 3H-cAMP substrate, SPA
Procedure: Reactions are initiated by addition of the cyclic nucleotide substrate, and reactions are allowed to proceed for one hr at room temperature before being terminated through mixing with 15 uL 8 mg/mL yttrium silicate SPA beads (Amersham). […] Following a 1 hour incubation the reactions were terminated by addition of 15 uL 8 mg/mL yttrium silicate SPA beads (Amersham). […] IC50 values were calculated by nonlinear regression using XLfit (IDBS).

[1] = Blood Brain Barrier penetration (brain-to-plasma distribution); type: in vivo, Male CD mice; conditions: mouse, 10 mg/kg subcutaneous
Procedure: Male CD mice (20-24 g) were housed pair-wise with free access to food and water for an acclimatization period of 3-7 days before initiation of experiments. Prior to dosing the animals were fasted overnight. During testing, mice were kept in individual cages. The brain-to-plasma distribution was assessed 30 minutes and 2 hours after subcutaneous administration of the test compound at a dose of 10 mg/kg (n=3 at each time point). The dose volume was 10 ml/kg using appropriate vehicle to solubilize each test compound. At the time of sampling, animals were anesthetized with isoflurane and a systemic blood sample collected by cardiac puncture into vacutainers containing sodium heparin as anti-coagulant. The blood was centrifuged at 3500 rpm for 10 minutes at 4° C. to obtain plasma. Following decapitation, brains were dissected out and transferred to pre-weighed vessels followed by tissue weights determination. Plasma and brains were stored at −80° C. until quantitative bioanalysis by LC-MS/MS. Results are expressed as ng/ml for plasma and ng/g for brain samples.

Sequence of PDE9 (O76083 whole entry): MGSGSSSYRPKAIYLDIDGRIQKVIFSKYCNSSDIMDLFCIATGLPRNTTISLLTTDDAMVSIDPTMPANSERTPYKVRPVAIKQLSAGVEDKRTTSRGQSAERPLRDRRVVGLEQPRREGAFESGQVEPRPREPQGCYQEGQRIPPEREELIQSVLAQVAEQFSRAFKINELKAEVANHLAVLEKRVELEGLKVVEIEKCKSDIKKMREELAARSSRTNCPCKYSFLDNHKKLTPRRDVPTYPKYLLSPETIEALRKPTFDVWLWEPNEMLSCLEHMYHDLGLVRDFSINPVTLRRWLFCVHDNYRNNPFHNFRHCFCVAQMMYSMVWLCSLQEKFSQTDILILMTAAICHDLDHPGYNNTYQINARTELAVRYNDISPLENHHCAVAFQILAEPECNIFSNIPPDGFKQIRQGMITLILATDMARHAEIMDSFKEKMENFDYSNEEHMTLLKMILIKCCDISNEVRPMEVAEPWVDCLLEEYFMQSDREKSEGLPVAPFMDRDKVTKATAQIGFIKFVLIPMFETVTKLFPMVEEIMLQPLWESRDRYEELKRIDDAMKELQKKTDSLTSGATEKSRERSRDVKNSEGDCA

IC50 (PDE9) [nM] | Brain concentration after 120 minutes [1] | Brain concentration after 30 minutes ([1]; 30 min) | SMILES
49 | 120 mm.: 7 ng/mL |  | C[C@@H]1CN(Cc2ncccn2)C[C@H]1c1cn2c(C3CCOCC3)ncc2c(=O)[nH]1 (single isomer, unassigned) [Compound (P3, enantiomer 1)]
 | Below detection | Below detection | O=c1[nH]c(CN2CC(Oc3cccnc3)C2)cn2c(C3CCOCC3)ncc12 [Compound (P2), 6-[3-(pyridin-3-yloxy)-azetidin-1-ylmethyl]-3-(tetrahydropyran-4-yl)-7H-imidazo[1,5-a]pyrazin-8-one]
